# Laboratory results as given in ChEMBL document CHEMBL5029157, “Identification of unprecedented ATP-competitive choline kinase inhibitors” (Bioorg Med Chem Lett, 2021).
# Legend:
# [1] = Solubility of compound at pH 7; type: physicochemical; conditions: buffer
# [2] = Metabolic stability in human liver microsomes assessed as intrinsic clearance; type: ADME, Microsome; conditions: read-out: CLH
# [3] = Metabolic stability in rat hepatocyte assessed as intrinsic clearance; type: ADME, tissue-based; conditions: hepatocytes, read-out: CLH
# [4] = target: Choline/ethanolamine kinase (Homo sapiens, UniProt Q9Y259)
# Sequence of Choline/ethanolamine kinase (Q9Y259 whole entry): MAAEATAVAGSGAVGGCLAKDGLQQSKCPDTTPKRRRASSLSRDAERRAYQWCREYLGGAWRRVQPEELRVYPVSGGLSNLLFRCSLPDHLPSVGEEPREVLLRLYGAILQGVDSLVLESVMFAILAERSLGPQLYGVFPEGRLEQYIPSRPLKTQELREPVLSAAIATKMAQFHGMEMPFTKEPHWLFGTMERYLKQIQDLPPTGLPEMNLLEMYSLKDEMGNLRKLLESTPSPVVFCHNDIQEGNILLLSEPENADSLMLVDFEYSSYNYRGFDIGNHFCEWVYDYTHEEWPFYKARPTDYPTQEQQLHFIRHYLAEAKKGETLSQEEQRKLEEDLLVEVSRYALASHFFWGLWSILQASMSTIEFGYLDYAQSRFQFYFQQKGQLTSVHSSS
solubility [1],CLint scaled [2],CLint scaled [3],IC50 [4],Compound
1 µM,,,,COc1ccc2nc(NC(=O)[C@H]3CC[C@@H](n4cnc5c(N)nc(Cl)nc54)CC3)sc2c1
105 µM,13 mL/min/kg,22 mL/min/kg,,CN1CCc2nc(NC(=O)[C@H]3CC[C@@H](n4cnc5c(N)nc(F)nc54)CC3)sc2C1
3 µM,,,,Nc1nc(Cl)nc2c1ncn2[C@H]1CC[C@@H](C(=O)Nc2nc3ccc(O)cc3s2)CC1
1 µM,,,,Nc1nc(Cl)nc2c1ncn2[C@H]1CC[C@@H](C(=O)Nc2nc3c(F)cc(F)cc3s2)CC1
73 µM,,,,CC(C)N1CCc2nc(NC(=O)[C@H]3CC[C@@H](n4cnc5c(N)nc(Cl)nc54)CC3)sc2C1
4 µM,,,,Nc1nc(Cl)nc2c1ncn2[C@H]1CC[C@@H](C(=O)Nc2nc3c(s2)COCC3)CC1
2 µM,,,,NC(=O)Cc1ccc2nc(NC(=O)[C@H]3CC[C@@H](n4cnc5c(N)nc(Cl)nc54)CC3)sc2c1
3 µM,,,,NC(=O)c1ccc2nc(NC(=O)[C@H]3CC[C@@H](n4cnc5c(N)nc(Cl)nc54)CC3)sc2c1
,,,> 10 µM,COc1cccc(NC(=O)[C@H]2CC[C@@H](n3cnc4c(N)nc(-c5ccc6cn[nH]c6c5)nc43)CC2)c1
,,,> 10 µM,COc1cccc(NC(=O)[C@H]2CC[C@@H](n3cnc4c(N)nc(N5CCN(C)CC5)nc43)CC2)c1
15 µM,12 mL/min/kg,34 mL/min/kg,,Cc1csc(NC(=O)[C@H]2CC[C@@H](n3cnc4c(N)nc(Cl)nc43)CC2)n1
3 µM,,,,Nc1nc(Cl)nc2c1ncn2[C@H]1CC[C@@H](C(=O)Nc2nc3ccc(F)cc3s2)CC1
5 µM,,,,Cc1cnc(NC(=O)[C@H]2CC[C@@H](n3cnc4c(N)nc(Cl)nc43)CC2)s1
,,,> 10 µM,COc1cccc(NC(=O)[C@H]2CC[C@@H](n3cnc4c(N)nc(-c5ccc6[nH]ncc6c5)nc43)CC2)c1
4 µM,,,,Nc1nc(Cl)nc2c1ncn2[C@H]1CC[C@@H](C(=O)Nc2nc3c(O)cccc3s2)CC1
37 µM,,,,Nc1nc(Cl)nc2c1ncn2[C@H]1CC[C@@H](C(=O)Nc2nc3c(s2)CS(=O)(=O)CC3)CC1
153 µM,,,,Nc1nc(Cl)nc2c1ncn2[C@H]1CC[C@@H](C(=O)Nc2nc3c(s2)CNCC3)CC1
,,,> 10 µM,Nc1ncnc2c1ncn2[C@H]1CC[C@@H](C(=O)Nc2ccc(S(=O)(=O)C(F)(F)F)cc2)CC1
9 µM,,,,Nc1nc(Cl)nc2c1ncn2[C@H]1CC[C@@H](C(=O)Nc2nc(C(F)(F)F)cs2)CC1
6 µM,,,,NC(=O)Cc1csc(NC(=O)[C@H]2CC[C@@H](n3cnc4c(N)nc(Cl)nc43)CC2)n1
2 µM,,,,COc1cccc2sc(NC(=O)[C@H]3CC[C@@H](n4cnc5c(N)nc(Cl)nc54)CC3)nc12
171 µM,33 mL/min/kg,49 mL/min/kg,,CN1CCc2nc(NC(=O)[C@H]3CC[C@@H](n4cnc5c(N)nc(Cl)nc54)CC3)sc2C1
,,,> 10 µM,CS(=O)(=O)c1ccc(NC(=O)[C@H]2CC[C@@H](n3cnc4c(N)ncnc43)CC2)cc1
2 µM,12 mL/min/kg,34 mL/min/kg,,Cc1csc(NC(=O)[C@H]2CC[C@@H](n3cnc4c(N)nc(F)nc43)CC2)n1
13 µM,,,,Cl.Nc1nc(Cl)nc2c1ncn2[C@H]1CC[C@@H](C(=O)Nc2nc3c(s2)CN(C2CC2)CC3)CC1
,,,> 10 µM,Nc1ncnc2c1ncn2[C@H]1CC[C@@H](C(=O)Nc2cccc(S(=O)(=O)C(F)(F)F)c2)CC1
200 µM,56 mL/min/kg,84 mL/min/kg,,CC1(C)Cc2nc(NC(=O)[C@H]3CC[C@@H](n4cnc5c(N)nc(F)nc54)CC3)sc2C(C)(C)N1
97 µM,,,,NC(=O)Cc1cnc(NC(=O)[C@H]2CC[C@@H](n3cnc4c(N)nc(Cl)nc43)CC2)s1
119 µM,78 mL/min/kg,97 mL/min/kg,,CC1(C)Cc2nc(NC(=O)[C@H]3CC[C@@H](n4cnc5c(N)nc(Cl)nc54)CC3)sc2C(C)(C)N1
5 µM,,,,Nc1nc(Cl)nc2c1ncn2[C@H]1CC[C@@H](C(=O)Nc2nc(-c3ccccc3)cs2)CC1
